Source: patent US8486939B2, “Pyrimidinyl and 1,3,5-triazinyl benzimidazoles and their use in cancer therapy” (Pathway Therapeutics Inc., priority 2009, dated 2013)
Values belong to the molecule of their own block, whether it stands above or below them.

Assays:
PI3K = details: background, literature; cited from earlier work
human tumor xenografts = details: mice with human tumor xenografts; cited from earlier work
p110δ/p85 = p110δ/p85 (Homo sapiens, UniProt O00329); experiment: Inhibition of isolated enzyme (lipid kinase assay, [γ33P]ATP, TLC); assay type: biochemical; details: recombinant enzyme, 100 μM ATP, 1 hr room temperature, average of two experiments
Chain of p110δ/p85 (O00329 whole entry, species assumed): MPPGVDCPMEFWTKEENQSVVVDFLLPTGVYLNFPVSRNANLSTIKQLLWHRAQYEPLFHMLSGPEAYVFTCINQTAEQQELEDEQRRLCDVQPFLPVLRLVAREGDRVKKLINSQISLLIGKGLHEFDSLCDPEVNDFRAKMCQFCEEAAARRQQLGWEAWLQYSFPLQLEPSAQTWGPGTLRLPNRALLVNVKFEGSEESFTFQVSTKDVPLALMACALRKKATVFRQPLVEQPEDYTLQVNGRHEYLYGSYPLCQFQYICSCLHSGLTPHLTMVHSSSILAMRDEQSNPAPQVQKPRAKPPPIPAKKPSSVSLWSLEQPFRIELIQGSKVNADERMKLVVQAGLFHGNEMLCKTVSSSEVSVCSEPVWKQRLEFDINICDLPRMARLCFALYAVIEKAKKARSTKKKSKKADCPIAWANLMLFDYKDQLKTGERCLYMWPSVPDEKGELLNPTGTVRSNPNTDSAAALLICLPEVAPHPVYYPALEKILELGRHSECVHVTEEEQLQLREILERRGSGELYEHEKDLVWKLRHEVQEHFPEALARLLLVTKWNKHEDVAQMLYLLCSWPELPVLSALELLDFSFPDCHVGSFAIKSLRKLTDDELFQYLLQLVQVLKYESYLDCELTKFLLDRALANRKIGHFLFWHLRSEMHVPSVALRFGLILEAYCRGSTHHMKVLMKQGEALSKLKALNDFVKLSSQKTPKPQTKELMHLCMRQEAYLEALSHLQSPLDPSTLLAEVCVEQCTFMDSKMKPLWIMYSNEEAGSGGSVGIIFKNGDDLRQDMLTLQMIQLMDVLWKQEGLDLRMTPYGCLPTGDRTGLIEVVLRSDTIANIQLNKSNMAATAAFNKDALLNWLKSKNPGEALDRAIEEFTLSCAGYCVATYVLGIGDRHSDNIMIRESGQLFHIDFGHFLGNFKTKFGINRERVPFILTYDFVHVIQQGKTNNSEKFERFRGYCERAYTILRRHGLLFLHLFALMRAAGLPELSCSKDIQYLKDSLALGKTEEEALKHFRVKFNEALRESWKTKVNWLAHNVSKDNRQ
Chain of p110δ/p85 (P27986 whole entry partner, species assumed): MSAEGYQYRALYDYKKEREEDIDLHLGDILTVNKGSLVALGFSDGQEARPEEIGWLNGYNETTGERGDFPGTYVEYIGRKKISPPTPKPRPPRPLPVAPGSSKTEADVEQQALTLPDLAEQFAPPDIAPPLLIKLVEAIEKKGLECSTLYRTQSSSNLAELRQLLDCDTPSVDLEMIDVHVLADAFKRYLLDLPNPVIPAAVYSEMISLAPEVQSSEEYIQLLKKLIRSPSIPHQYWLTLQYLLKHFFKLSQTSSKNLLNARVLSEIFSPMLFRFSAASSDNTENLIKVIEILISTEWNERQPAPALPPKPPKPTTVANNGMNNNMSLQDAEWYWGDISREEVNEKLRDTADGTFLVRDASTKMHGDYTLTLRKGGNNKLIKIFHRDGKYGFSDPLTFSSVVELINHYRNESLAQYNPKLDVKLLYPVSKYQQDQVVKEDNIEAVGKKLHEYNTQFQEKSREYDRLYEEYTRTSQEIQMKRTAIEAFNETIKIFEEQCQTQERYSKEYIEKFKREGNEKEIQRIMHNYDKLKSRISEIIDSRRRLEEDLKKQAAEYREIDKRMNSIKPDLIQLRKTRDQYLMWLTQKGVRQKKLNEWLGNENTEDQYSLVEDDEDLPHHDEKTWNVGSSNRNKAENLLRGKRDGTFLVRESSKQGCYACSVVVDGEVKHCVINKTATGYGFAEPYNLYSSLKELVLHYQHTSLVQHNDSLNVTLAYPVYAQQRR
Procedure, shortened: (§1)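 Each recombinant p110/p85 enzyme (0.1 μg) was incubated with 10 μg L-α-phosphatidylinositol in Tris-HCl pH 7.4 buffer with NaCl and EDTA, 1% final DMSO, and was started with ATP mix (100 μM ATP, 5 mM MgCl2, [γ33P]ATP). Reactions ran 1 h at room temperature, and the lipids were extracted, TLC-separated and phosphorimaged. IC50 came from nine concentrations and is the mean of two experiments.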

p110β/p85 = p110β/p85 (Homo sapiens, UniProt P42338); experiment: as above; assay type: biochemical; details: recombinant enzyme, 100 μM ATP, 1 hr room temperature, average of two experiments
Chain of p110β/p85 (P42338 whole entry, species assumed): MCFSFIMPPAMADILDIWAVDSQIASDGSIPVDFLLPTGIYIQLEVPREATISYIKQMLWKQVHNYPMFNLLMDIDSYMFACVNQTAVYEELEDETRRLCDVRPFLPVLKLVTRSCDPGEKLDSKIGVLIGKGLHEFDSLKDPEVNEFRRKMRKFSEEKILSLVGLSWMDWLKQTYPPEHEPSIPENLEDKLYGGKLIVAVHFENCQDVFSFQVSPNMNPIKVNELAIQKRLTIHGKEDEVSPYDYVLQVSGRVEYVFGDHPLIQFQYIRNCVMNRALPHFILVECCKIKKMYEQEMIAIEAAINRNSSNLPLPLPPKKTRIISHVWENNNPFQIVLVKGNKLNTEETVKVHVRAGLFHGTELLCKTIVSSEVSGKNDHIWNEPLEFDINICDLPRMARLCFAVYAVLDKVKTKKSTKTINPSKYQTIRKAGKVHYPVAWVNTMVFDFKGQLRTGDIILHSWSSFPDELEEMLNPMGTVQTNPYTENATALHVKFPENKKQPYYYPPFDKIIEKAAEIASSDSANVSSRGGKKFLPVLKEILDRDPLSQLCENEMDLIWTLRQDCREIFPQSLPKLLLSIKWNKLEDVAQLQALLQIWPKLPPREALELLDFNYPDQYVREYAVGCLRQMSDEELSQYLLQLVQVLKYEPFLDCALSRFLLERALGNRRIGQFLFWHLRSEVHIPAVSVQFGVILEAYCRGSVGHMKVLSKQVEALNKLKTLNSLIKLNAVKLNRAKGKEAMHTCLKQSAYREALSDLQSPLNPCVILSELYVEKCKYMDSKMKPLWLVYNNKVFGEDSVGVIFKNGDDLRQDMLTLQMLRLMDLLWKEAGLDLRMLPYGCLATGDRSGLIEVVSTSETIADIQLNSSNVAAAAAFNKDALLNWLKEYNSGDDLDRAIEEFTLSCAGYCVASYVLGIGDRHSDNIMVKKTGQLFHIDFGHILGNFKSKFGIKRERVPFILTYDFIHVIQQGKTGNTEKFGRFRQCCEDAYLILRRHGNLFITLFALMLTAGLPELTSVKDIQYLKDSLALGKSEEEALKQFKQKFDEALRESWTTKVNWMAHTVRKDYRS
Chain of p110β/p85 (P27986 whole entry partner, species assumed): as the sequence (P27986 whole entry partner, species assumed) above
Procedure, shortened: as §1

p110α/p85 = p110α/p85 (Homo sapiens, UniProt P42336); experiment: as above; assay type: biochemical; details: recombinant enzyme, 100 μM ATP, 1 hr room temperature, average of two experiments
Chain of p110α/p85 (P42336 whole entry): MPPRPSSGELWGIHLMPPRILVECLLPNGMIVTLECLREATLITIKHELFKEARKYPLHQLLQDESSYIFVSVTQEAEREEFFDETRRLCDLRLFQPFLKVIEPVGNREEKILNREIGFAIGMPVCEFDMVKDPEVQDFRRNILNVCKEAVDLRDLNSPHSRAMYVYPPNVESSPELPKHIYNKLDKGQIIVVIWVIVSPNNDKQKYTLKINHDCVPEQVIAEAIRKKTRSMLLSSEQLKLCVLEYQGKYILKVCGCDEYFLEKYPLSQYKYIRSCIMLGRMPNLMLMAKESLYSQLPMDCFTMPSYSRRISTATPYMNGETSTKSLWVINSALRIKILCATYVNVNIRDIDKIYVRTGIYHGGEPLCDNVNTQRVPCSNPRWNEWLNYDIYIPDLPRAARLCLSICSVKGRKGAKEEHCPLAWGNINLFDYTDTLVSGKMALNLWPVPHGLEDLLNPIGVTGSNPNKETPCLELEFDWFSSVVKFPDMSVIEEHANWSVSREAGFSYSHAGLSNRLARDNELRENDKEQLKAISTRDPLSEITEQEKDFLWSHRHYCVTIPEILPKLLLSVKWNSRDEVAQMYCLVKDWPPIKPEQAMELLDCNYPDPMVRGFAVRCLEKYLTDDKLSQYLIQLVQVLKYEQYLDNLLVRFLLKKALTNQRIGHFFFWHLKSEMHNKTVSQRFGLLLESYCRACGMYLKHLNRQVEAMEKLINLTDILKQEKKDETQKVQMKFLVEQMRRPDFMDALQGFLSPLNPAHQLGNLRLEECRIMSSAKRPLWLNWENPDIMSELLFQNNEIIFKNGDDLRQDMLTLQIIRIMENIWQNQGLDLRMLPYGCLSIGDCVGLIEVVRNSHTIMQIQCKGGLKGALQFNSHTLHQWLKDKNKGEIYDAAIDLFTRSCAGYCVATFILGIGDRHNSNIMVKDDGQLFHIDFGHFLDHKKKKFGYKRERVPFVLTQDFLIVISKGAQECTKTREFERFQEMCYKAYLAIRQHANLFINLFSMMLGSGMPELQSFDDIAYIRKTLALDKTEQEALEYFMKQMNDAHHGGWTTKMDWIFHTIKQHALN
Chain of p110α/p85 (P27986 whole entry partner): as the sequence (P27986 whole entry partner, species assumed) above
Procedure, shortened: as §1

NZOV9 = experiment: Cellular growth inhibition (3H-thymidine incorporation); assay type: cell-based; details: Homo sapiens, five days incubation, 3H-thymidine over the last 6 hrs, read-out: Cell IC50* NZOV9
Protocol: (§2) The compounds were evaluated against two early passage human cell lines NZB5 and NZOV9 (Marshall et al., Oncol. Res. 2004, 14, 297). The cells were grown in ITS medium (α-modified minimal essential medium supplemented insulin, transferrin, selenite, and 5% fetal bovine serum) and grown on 96-well tissue culture plates under an atmosphere of 5% O2, 5% CO2, and 90% N2. Individual wells contained 500-1,000 cells (depending on the growth rate) in a volume of 150 μL. Compounds were added at 10-fold concentration steps to a maximum of 20 μM and plates were incubated for five days, with ^3H-thymidine being added over the last 6 hrs. Cells were harvested and incorporated radioactivity measured. Duplicate samples were analyzed for each compound dose with multiple control samples. Data were fitted by a least-squares method to an exponential of the form y=y0+ae^−bx, where y is the radioactivity (corrected for background and normalized to 100% of the control), x is the […], and y0, a, and b are variables, and the IC50 value defined as the compound concentration reducing ^3H-thymidine levels by 50%.

NZB5 = experiment: as above; assay type: cell-based; details: Homo sapiens, five days incubation, 3H-thymidine over the last 6 hrs, read-out: Cell IC50* NZB5
Protocol: as §2

Structure (SMILES): Cc1ccccc1-n1c(Cn2cnc3c(N)ncnc32)nc2cccc(C)c2c1=O [IC87114]
PI3K isoform selectivity (PI3K): δ-selective

Structure (SMILES): FC(F)c1nc2ccccc2n1-c1nc(N2CCOCC2)nc(N2CCOCC2)n1 [ZSTK474]
PI3K isoform selectivity (PI3K): non-selective

Structure (SMILES): Cc1cc(C(C)Nc2ccccc2)c2nc(N3CCOCC3)cc(=O)n2c1 (centres unmarked) [TGX221]
PI3K isoform selectivity (PI3K): β-selective

Structure (SMILES): O=c1cc(N2CCOCC2)oc2c(-c3ccccc3)cccc12 [LY294002]
tolerability (human tumor xenografts): well-tolerated

Structure (SMILES): Oc1cccc(-c2nc(N3CCOCC3)c3oc4ncccc4c3n2)c1 [PI103]
PI3K isoform selectivity (PI3K): slightly α-selective

IC50 (p110δ/p85): < 100 nM
IC50 (p110β/p85): 100 to 1000 nM
IC50 (p110α/p85): < 100 nM
melting point: 222 to 224 °C
Structure (SMILES): FC(F)c1nc2ccccc2n1-c1nc(Nc2ccncc2)nc(N2CCOCC2)n1 [Example 17, 4-[2-(difluoromethyl)-1H-benzimidazol-1-yl]-6-(4-morpholinyl)-N-(4-pyridinyl)-1,3,5-triazin-2-amine]
IC50 (NZOV9): < 100 nM
IC50 (NZB5): < 100 nM

IC50 (p110δ/p85): < 100 nM
IC50 (p110β/p85): 100 to 1000 nM
IC50 (p110α/p85): < 100 nM
melting point: 218 to 221 °C
Structure (SMILES): CNc1ccc(Nc2nc(N3CCOCC3)nc(-n3c(C(F)F)nc4c(OC)cccc43)n2)cn1 [Example 38, N^5-[4-[2-(difluoromethyl)-4-methoxy-1H-benzimidazol-1-yl]-6-(4-morpholinyl)-1,3,5-triazin-2-yl]-N^2-methyl-2,5-pyridinediamine]
IC50 (NZOV9): < 100 nM
IC50 (NZB5): < 100 nM
